Patent US10821115B2, “Compounds that inhibit Mcl-1 protein” (priority 2017, dated 2020)
pIC50: −log10 of the molar value. Where two headings read alike, the source gives them in different places.

Experiments:
[1] = molecular target: recombinant human Mcl-1 (residues 171-327) / Bim interaction (Homo sapiens (Human), UniProt Q07820); assay: biochemical; type: binding; conditions: read-out: Mcl-1 HTRF IC50
[2] = tested on: human multiple myeloma cell line, OPM-2; assay: Cell viability assay (OPM-2 10 FBS), CellTiter-Glo; type: cell-based
In short: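 IC50 values come from 4-parameter logistic fits of luminescence signals reflecting cell viability. Treatment lasted 16 h at 37 °C in complete medium with 10% FBS, starting from 3000 cells/well.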

[3] = 0.1 nM Mcl-1(171-327), 0.05 nM biotin-Bim (51-76)
[4] = read-out: OPM-2 10% FBS IC50 IP, OPM-2 cells, 10% FBS, 16 h incubation
[5] = TR-FRET, Mcl-1(171-327) / biotin-Bim (51-76)
[6] = Homo sapiens, OPM-2, 16 h, read-out: OPM-2 10% FBS IC50 IP, OPM-2 cells, 10% FBS, 16 h, CellTiter-Glo
[7] = Homo sapiens, OPM-2, 16 h, read-out: OPM-2 10% FBS IC50 IP, OPM-2 cells, 10% FBS, 16 h incubation

Chain of recombinant human Mcl-1 (residues 171-327) / Bim interaction (Q07820 171-327): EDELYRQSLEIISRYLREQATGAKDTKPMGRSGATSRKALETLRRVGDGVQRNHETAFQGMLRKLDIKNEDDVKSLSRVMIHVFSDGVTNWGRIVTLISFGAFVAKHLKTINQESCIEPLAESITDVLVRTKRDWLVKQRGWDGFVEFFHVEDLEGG

Row | SMILES | pIC50 [1, 3] | pIC50 [1, 5] | pIC50 [2, 6] | other results
1 | CO[C@]1(CN2CC[C@H]3CCCC[C@@H]3C2)/C=C/C[C@H](C)[C@@H](C)S(=O)(=O)NC(=O)c2ccc3c(c2)N(C[C@@H]2CC[C@H]21)C[C@@]1(CCCc2cc(Cl)ccc21)CO3 (single isomer, unassigned) [Example 89] | 8.43 |  |  | pIC50 [2, 4]: 5.09
2 | CO[C@@]1(CSC(C)C)/C=C/C[C@H](C)[C@@H](C)S(=O)(=O)NC(=O)c2ccc3c(c2)N(C[C@@H]2CC[C@H]21)C[C@@]1(CCCc2cc(Cl)ccc21)CO3 [Example 100441, (1S,3′R,6′R,7′S,8′E,11′S,12′R)-6-chloro-7′-methoxy-11′,12′-dimethyl-7′-((2-propanylsulfanyl)methyl)-3,4-dihydro-2H,15′H-spiro[naphthalene-1,22′-[20]oxa[13]thia[1,14]diazatetracyclo [14.7.2.0~3,6~.0~19,24~]pentacosa[8,16,18,24]tetraen]-15′-one 13′,13′-dioxide] |  | 9.88 | 6.81 | 
3 | C[C@@H]1[C@@H](C)C[C@@H](N(C)C)C[C@](C)(O)[C@@H]2CC[C@H]2CN2C[C@@]3(CCCc4cc(Cl)ccc43)COc3ccc(cc32)C(=O)NS1(=O)=O [Example 100063, (1S,3′R,6′R,7′S,9′R,11′S,12′R)-6-chloro-9′-(dimethylamino)-7′-hydroxy-7′,11′,12′-trimethyl-3,4-dihydro-2H,15′H-spiro[naphthalene-1,22′-[20]oxa[13]thia[1,14]diazatetracyclo [14.7.2.0~3,6~.0~19,24~]pentacosa[16,18,24]trien]-15′-one 13′,13′-dioxide] |  | 8.63 | 5.65 | 
4 | CC(=O)N[C@@]1(CO)CCC[C@H](C)[C@@H](C)S(=O)(=O)NC(=O)c2ccc3c(c2)N(C[C@@H]2CC[C@H]21)C[C@@]1(CCCc2cc(Cl)ccc21)CO3 [Example 100265, N-((1S,3′R,6′R,7′S,11′S,12′R)-6-chloro-7′-(hydroxymethyl)-11′,12′-dimethyl-13′,13′-dioxido-15′-oxo-3,4-dihydro-2H-spiro[naphthalene-1,22′-[20]oxa[13]thia[1,14]diazatetracyclo [14.7.2.0~3,6~.0~19,24~]pentacosa[16,18,24]trien]-7′-yl)acetamide] |  | 9.36 | 6.36 | 
5 | CC(C)CO[C@@]1(CN2CCN3CCOC[C@@H]3C2)/C=C/C[C@H](C)[C@@H](C)S(=O)(=O)NC(=O)c2ccc3c(c2)N(C[C@@H]2CC[C@H]21)C[C@@]1(CCCc2cc(Cl)ccc21)CO3 [Example 349, (1S,3′R,6′R,7′S,8′E,11′S,12′R)-6-chloro-7′-((9aS)-hexahydropyrazino[2,1-c][1,4]oxazin-8(1H)-ylmethyl)-11′,12′-dimethyl-7′-(2-methylpropoxy)-3,4-dihydro-2H,15′H-spiro[naphthalene-1,22′-[20]oxa[13]thia[1,14]diazatetracyclo [14.7.2.0~3,6~.0~19,24~]pentacosa[8,16,18,24]tetraen]-15′-one 13′,13′-dioxide] | 8.79 |  |  | pIC50 [2, 7]: 5.11
6 | CO[C@]1(CN2CCN(C(C)C)[C@H](C)C2)/C=C/C[C@H](C)[C@@H](C)S(=O)(=O)NC(=O)c2ccc3c(c2)N(C[C@@H]2CC[C@H]21)C[C@@]1(CCCc2cc(Cl)ccc21)CO3 [Example 8, (1 S,3′R,6′R,7′R,8′E, 11′S,12′R)-6-CHLORO-7′-METHOXY-11′,12′-DIMETHYL-7′-(((3R)-3-METHYL-4-(1-METHYLETHYL)-1-PIPERAZINYL)METHYL)-3,4-DIHYDRO-2H, 15′H-SPIRO [NAPHTHALENE-1,22′-[20]OXA[13]THIA[1,14]DIAZATETRACYCLO[14.7.2.0-3,6˜.0˜19,24˜]PENT ACOSA[8,16,18,24]TETRAEN]-15′-ONE 13′,13′-DIOXIDE] | 10.28 |  |  | pIC50 [2, 4]: 7.60
7 | CO[C@@]1(CN2CCN(C3COCCOC3)CC2)/C=C/C[C@H](C)[C@@H](C)S(=O)(=O)NC(=O)c2ccc3c(c2)N(C[C@@H]2CC[C@H]21)C[C@@]1(CCCc2cc(Cl)ccc21)CO3 [Example 340, (1S,3′R,6′R,7′S,8′E,11′S,12′R)-6-chloro-7′-((4-(1,4-dioxepan-6-yl)-1-piperazinyl)methyl)-7′-methoxy-11′,12′-dimethyl-3,4-dihydro-2H,15′H-spiro[naphthalene-1,22′-[20]oxa[13]thia[1,14]diazatetracyclo [14.7.2.0~3,6~.0~19,24~]pentacosa[8,16,18,24]tetraen]-15′-one 13′,13′-dioxide] | 9.89 |  |  | pIC50 [2, 7]: 7.22
8 | COCCN1CCN(C[C@@]2(OC)/C=C/C[C@H](C)[C@@H](C)S(=O)(=O)NC(=O)c3ccc4c(c3)N(C[C@@H]3CC[C@H]32)C[C@@]2(CCCc3cc(Cl)ccc32)CO4)CC1=O [Example 54, (1S,3′R,6′R,7′R,8′E,11′S,12′R)-6-chloro-7′-methoxy-7′-((4-(2-methoxyethyl)-3-oxo-1-piperazinyl)methyl)-11′,12′-dimethyl-3,4-dihydro-2H,15′H-spiro[naphthalene-1,22′-[20]oxa[13]thia[1,14]diazatetracyclo [14.7.2.0~3,6~.0~19,24~]pentacosa[8,16,18,24]tetraen]-15′-one 13′,13′-dioxide] | 9.76 |  |  | pIC50 [2, 7]: 6.89
9 | C[C@@H]1[C@@H](C)C/C=C/[C@](O)(c2cnccc2F)[C@@H]2CC[C@H]2CN2C[C@@]3(CCCc4cc(Cl)ccc43)COc3ccc(cc32)C(=O)NS1(=O)=O (stereo in doubt) [Example 100537] |  | 9.94 | 6.59 | 
10 | CO[C@]1(CN2CCN3CCN(S(C)(=O)=O)C[C@@H]3C2)/C=C/C[C@H](C)[C@@H](C)S(=O)(=O)NC(=O)c2ccc3c(c2)N(C[C@@H]2CC[C@H]21)C[C@@]1(CCCc2cc(Cl)ccc21)CO3 [Example 227] | 9.68 |  |  | pIC50 [2, 4]: 6.88
11 | CO[C@@]1(Cc2nc(CO)co2)/C=C/C[C@H](C)[C@@H](C)S(=O)(=O)NC(=O)c2ccc3c(c2)N(C[C@@H]2CC[C@H]21)C[C@@]1(CCCc2cc(Cl)ccc21)CO3 [Example 100570, (1S,3′R,6′R,7′S,8′E,11′S,12′R)-6-chloro-7′-((4-(hydroxymethyl)-1,3-oxazol-2-yl)methyl)-7′-methoxy-11′,12′-dimethyl-3,4-dihydro-2H,15′H-spiro[naphthalene-1,22′-[20]oxa[13]thia[1,14]diazatetracyclo [14.7.2.0~3,6~.0~19,24~]pentacosa[8,16,18,24]tetraen]-15′-one 13′,13′-dioxide] |  | 8.47 | 5.30 | 
12 | C[C@@H]1[C@@H](C)C/C=C/[C@@](C)(O)[C@@H]2CC[C@H]2CN2C[C@@]3(CCCc4cc(Cl)ccc43)COc3ccc(nc32)C(=O)NS1(=O)=O (single isomer, unassigned) [Example 100601] |  | 9.94 | 6.62 | 
13 | CC(=O)N[C@@]1(CN2CCOCC2)CCC[C@H](C)[C@@H](C)S(=O)(=O)NC(=O)c2ccc3c(c2)N(C[C@@H]2CC[C@H]21)C[C@@]1(CCCc2cc(Cl)ccc21)CO3 [Example 100272, N-((1S,3′R,6′R,7′S,11′S,12′R)-6-chloro-11′,12′-dimethyl-7′-(4-morpholinylmethyl)-13′,13′-dioxido-15′-oxo-3,4-dihydro-2H-spiro[naphthalene-1,22′-[20]oxa[13]thia[1,14]diazatetracyclo [14.7.2.0~3,6~.0~19,24~]pentacosa[16,18,24]trien]-7′-yl)acetamide] |  | 9.40 | 6.46 | 
14 | C[C@@H]1[C@@H](C)C/C=C/[C@](O)(C(F)(F)F)[C@@H]2CC[C@H]2CN2C[C@@]3(CCCc4cc(Cl)ccc43)COc3ccc(cc32)C(=O)NS1(=O)=O [Example 100046, (1S,3′R,6′R,7′R,8′E,11′S,12′R)-6-chloro-7′-hydroxy-11′,12′-dimethyl-7′-(trifluoromethyl)-3,4-dihydro-2H,15′H-spiro[naphthalene-1,22′-[20]oxa[13]thia[1,14]diazatetracyclo [14.7.2.0~3,6~.0~19,24~]pentacosa[8,16,18,24]tetraen]-15′-one 13′,13′-dioxide] |  | 8.42 | 6.01 | 
15 | C[C@@H]1[C@@H](C)C/C=C/[C@@](O)([C@@H](O)C(=O)N(C)C)[C@@H]2CC[C@H]2CN2C[C@@]3(CCCc4cc(Cl)ccc43)COc3ccc(cc32)C(=O)NS1(=O)=O [Example 100289, (2R)-2-((1S,3′R,6′R,7′S,8′E,11′S,12′R)-6-chloro-7′-hydroxy-11′,12′-dimethyl-13′,13′-dioxido-15′-oxo-3,4-dihydro-2H-spiro[naphthalene-1,22′-[20]oxa[13]thia[1,14]diazatetracyclo [14.7.2.0~3,6~.0~19,24~]pentacosa[8,16,18,24]tetraen]-7′-yl)-2-hydroxy-N,N-dimethylethanamide] |  | 9.06 | 5.40 | 
16 | CO[C@@]1(CN2CCN(CCO)CC2)/C=C/C[C@H](C)[C@@H](C)S(=O)(=O)NC(=O)c2ccc3c(c2)N(C[C@@H]2CC[C@H]21)C[C@@]1(CCCc2cc(Cl)ccc21)CO3 [Example 300, (1S,3′R,6′R,7′S,8′E,11′S,12′R)-6-chloro-7′-((4-(2-hydroxyethyl)-1-piperazinyl)methyl)-7′-methoxy-11′,12′-dimethyl-3,4-dihydro-2H,15′H-spiro[naphthalene-1,22′-[20]oxa[13]thia[1,14]diazatetracyclo [14.7.2.0~3,6~.0~19,24~]pentacosa[8,16,18,24]tetraen]-15′-one 13′,13′-dioxide] | 9.78 |  |  | pIC50 [2, 7]: 6.55
17 | C[C@@H]1[C@@H](C)C/C=C/[C@@](O)([C@@H](C)C(=O)N(C)C)[C@@H]2CC[C@H]2CN2C[C@@]3(CCCc4cc(Cl)ccc43)COc3ccc(cc32)C(=O)NS1(=O)=O (single isomer, unassigned) [Example 100126] |  | 9.74 |  | pIC50 ([2]; read-out: OPM-2 10% FBS IC50 IP, OPM-2 cells, 10% FBS, 16 h, CellTiter-Glo): 7.39
